Results: BindingDB's records for patent US20240270732 (Chengdu Biobel Biotechnology Co., 2024)
pIC50: −log10 of the molar value.

target: T1, Receptor-interacting serine/threonine-protein kinase 1 (Homo sapiens, UniProt Q13546); assay: Inhibitory Activity Assay
T1 sequence (Q13546 whole entry): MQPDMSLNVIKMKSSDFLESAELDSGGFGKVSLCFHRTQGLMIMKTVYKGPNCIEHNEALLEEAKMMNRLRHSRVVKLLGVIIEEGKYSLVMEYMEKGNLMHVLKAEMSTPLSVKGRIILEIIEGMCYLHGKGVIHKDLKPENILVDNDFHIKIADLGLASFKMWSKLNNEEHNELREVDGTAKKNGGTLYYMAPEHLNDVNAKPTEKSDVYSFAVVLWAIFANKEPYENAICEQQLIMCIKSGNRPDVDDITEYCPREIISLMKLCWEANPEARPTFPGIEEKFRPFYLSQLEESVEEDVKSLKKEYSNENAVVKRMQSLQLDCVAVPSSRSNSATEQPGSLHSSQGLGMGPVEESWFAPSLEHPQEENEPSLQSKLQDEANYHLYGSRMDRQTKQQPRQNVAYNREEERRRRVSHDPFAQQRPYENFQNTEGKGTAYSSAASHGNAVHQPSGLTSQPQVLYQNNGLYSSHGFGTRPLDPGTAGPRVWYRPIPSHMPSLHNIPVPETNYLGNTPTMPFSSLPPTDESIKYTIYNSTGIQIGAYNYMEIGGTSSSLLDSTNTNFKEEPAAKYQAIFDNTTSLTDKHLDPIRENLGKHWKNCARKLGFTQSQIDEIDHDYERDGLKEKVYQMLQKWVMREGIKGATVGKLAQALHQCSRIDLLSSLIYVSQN
How it was run: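 Compounds were titrated 22-point, 1:1.5 from 2 μM top concentration, in 50 mM Hepes pH 7.5, 50 mM NaCl, 30 mM MgCl2, 1 mM DTT, 0.02% CHAPS, 0.5 mg/mL BSA. After the kinase reaction, ADP-Glo reagent was added for 1 h at room temperature, then detection solution for 30 min, and luminescence was read.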

Row | SMILES | pIC50
1 | C[C@H]1Oc2ccc(C#CCN3CCN(CC#Cc4ccc5c(c4)N(C)C(=O)[C@@H](NC(=O)c4n[nH]c(Cc6cccnc6)n4)[C@@H](C)O5)CC3)cc2N(C)C(=O)[C@H]1NC(=O)c1n[nH]c(Cc2cccnc2)n1 [US20240270732, Compound I-68] | 7.80
2 | C[C@H]1Oc2ccc(C#CCCO)cc2N(C)C(=O)[C@H]1NC(=O)c1n[nH]c(Cc2ccccc2)n1 [US20240270732, Compound I-105] | 8.31
3 | C[C@H]1Oc2ccc(C#Cc3cccc(S(=O)(=O)O)c3)cc2N(C)C(=O)[C@H]1NC(=O)c1ncn(Cc2ccccc2)n1 [US20240270732, Compound I-114] | 7.93
4 | CC(O)C#Cc1ccc2c(c1)N(C)C(=O)[C@@H](NC(=O)c1n[nH]c(Cc3ccccc3)n1)[C@@H](C)O2 (some centres undefined) [US20240270732, Compound I-103] | 7.99
5 | C[C@H]1Oc2ccc(C#CCN3CCN(CC#Cc4ccc5c(c4)N(C)C(=O)[C@@H](NC(=O)c4nnn(Cc6ccccc6)n4)[C@@H](C)O5)CC3)cc2N(C)C(=O)[C@H]1NC(=O)c1ncn(Cc2ccccc2)n1 [US20240270732, Compound I-25] | 8.47
6 | C[C@H]1Oc2ccc(C#CCN3CCN(CC#Cc4ccc5c(c4)N(C)C(=O)[C@@H](NC(=O)c4ncn(Cc6cccnc6)n4)[C@@H](C)O5)CC3)cc2N(C)C(=O)[C@H]1NC(=O)c1ncn(Cc2cccnc2)n1 [US20240270732, Compound I-74] | 7.76
7 | CN1C(=O)[C@@H](NC(=O)c2n[nH]c(Cc3ccccc3)n2)COc2ccc(C#CCN3CCN(CC#Cc4ccc5c(c4)N(C)C(=O)[C@@H](NC(=O)c4ncn(Cc6ccccc6)n4)CO5)CC3)cc21 [US20240270732, Compound I-13] | 8.49
8 | C[C@H]1Oc2ccc(C#Cc3ccncc3)cc2N(C)C(=O)[C@H]1NC(=O)c1n[nH]c(Cc2ccccc2)n1 [US20240270732, Compound I-109] | 8.37
9 | C[C@H]1Oc2ccc(C#CCN3CCN(CC#Cc4ccc5c(c4)N(C)C(=O)[C@@H](NC(=O)c4noc(Cc6ccccc6)n4)[C@@H](C)O5)CC3)cc2N(C)C(=O)[C@H]1NC(=O)c1noc(Cc2ccccc2)n1 [US20240270732, Compound I-52] | 7.88
10 | O=C(N[C@H]1COc2ccc(C#CCN3CCN(CC#Cc4ccc5c(c4)NC(=O)[C@@H](NC(=O)c4n[nH]c(Cc6ccccc6)n4)CO5)CC3)cc2NC1=O)c1n[nH]c(Cc2ccccc2)n1 [US20240270732, Compound I-21] | 8.01
11 | C[C@H]1Oc2ccc(C#CCN3CCN(CC#Cc4ccc5c(c4)N(C)C(=O)[C@@H](NC(=O)c4nnn(Cc6ccccc6)n4)[C@@H](C)O5)CC3)cc2N(C)C(=O)[C@H]1NC(=O)c1nnn(Cc2ccccc2)n1 [US20240270732, Compound I-56] | 8.13
12 | C#CCN1CCN(CC#Cc2ccc3c(c2)N(C)C(=O)[C@@H](NC(=O)c2ncn(Cc4cccc(N)c4)n2)[C@@H](C)O3)CC1 [US20240270732, Compound I-77] | 7.54
13 | C[C@H]1Oc2ccc(C#CCCCCC#Cc3ccc4c(c3)N(C)C(=O)[C@@H](NC(=O)c3n[nH]c(Cc5ccccc5)n3)[C@@H](C)O4)cc2N(C)C(=O)[C@H]1NC(=O)c1n[nH]c(Cc2ccccc2)n1 [US20240270732, Compound I-79] | 7.98
14 | C#CCN1CCN(CC#Cc2ccc3c(c2)N(C)C(=O)[C@@H](NC(=O)c2n[nH]c(Cc4ccncc4)n2)[C@@H](C)O3)CC1 [US20240270732, Compound I-65] | 7.68
15 | C#CCOCCOCCOCCOCCOCC#Cc1ccc2c(c1)N(C)C(=O)[C@@H](NC(=O)c1n[nH]c(Cc3ccccc3)n1)CO2 [US20240270732, Compound I-82-2] | 8.15
16 | C#CCN1CCN(CC#Cc2ccc3c(c2)NC(=O)[C@@H](NC(=O)c2n[nH]c(Cc4ccccc4)n2)[C@@H](C)O3)CC1 [US20240270732, Compound I-16] | 8.25
17 | C#CCOCCOCCOCCOCCOCC#Cc1ccc2c(c1)N(C)C(=O)[C@@H](NC(=O)c1ncn(Cc3ccccc3)n1)[C@@H](C)O2 [US20240270732, Compound I-84-2] | 8.10
18 | CN1C(=O)[C@@H](NC(=O)c2cn(Cc3ccccc3)cn2)COc2ccc(C#CCN3CCN(CC#Cc4ccc5c(c4)N(C)C(=O)[C@@H](NC(=O)c4ncn(Cc6ccccc6)n4)CO5)CC3)cc21 [US20240270732, Compound I-34] | 8.33
19 | C[C@H]1Oc2ccc(C#Cc3ccncc3)cc2N(C)C(=O)[C@H]1NC(=O)c1ncn(Cc2ccccc2)n1 [US20240270732, Compound I-110] | 8.33
